For this assay, the target named is full-length human recombinant active AKT-1 (Homo sapiens, UniProt P31749). The experiment in a line: AKT-1 Kinase Assay (IMAP fluorescence polarization). The note with it: phosphorylation of fluorescein-labeled Crosstide peptide by AKT-1, 60 minute incubation at ambient temperature. It is filed as biochemical. An excerpt:
The activity of the compound described in the present invention may be determined by the following kinase assay, which measures the phosphorylation of a fluorescently-labeled peptide by full-length human recombinant active AKT-1 by fluorescent polarization using a commercially available IMAP kit.
The assay materials are obtained from an IMAP AKT Assay Bulk Kit, product #R8059, from Molecular Devices, Sunnyvale, Calif. The kit materials include an IMAP Reaction Buffer (5×). The diluted 1×IMAP Reaction Buffer contained 10 mM Tris-HCl, pH 7.2, 10 mM MgCl2, 0.1% BSA, 0.05% NaN3. DTT is routinely added to a final concentration of 1 mM immediately prior to use. Also included is IMAP Binding Buffer (5×), and IMAP Binding Reagent. The Binding Solution is prepared as a 1:400 dilution of IMAP Binding Reagent into 1×IMAP Binding Buffer.
The fluorescein-labeled AKT Substrate (Crosstide) has the sequence (Fl)-GRPRTSSFAEG. A stock solution of 20 μM is made up in 1×IMAP Reaction Buffer. […]
The assay is initiated by the addition of 2.5-μL aliquots of a solution containing 200 nM of fluorescently-labeled peptide substrate and 4 nM AKT-1. […] The reaction is then quenched by the addition of 15 μL of Binding Solution, centrifuged again and incubated for an additional 30 minutes at ambient temperature prior to reading on a Victor 1420 Multilabel HTS Counter configured to measure fluorescence polarization.
(In general: In fluorescence polarisation assays a small probe gives low polarisation when free and higher when bound to something large.)

The text below walks through data of patent US8853216B2, “Hydroxylated pyrimidyl cyclopentane as AKT protein kinase inhibitor” (Array BioPharma, Inc., priority 2008, dated 2014).

full-length human recombinant active AKT-1, sequence (P31749 whole entry): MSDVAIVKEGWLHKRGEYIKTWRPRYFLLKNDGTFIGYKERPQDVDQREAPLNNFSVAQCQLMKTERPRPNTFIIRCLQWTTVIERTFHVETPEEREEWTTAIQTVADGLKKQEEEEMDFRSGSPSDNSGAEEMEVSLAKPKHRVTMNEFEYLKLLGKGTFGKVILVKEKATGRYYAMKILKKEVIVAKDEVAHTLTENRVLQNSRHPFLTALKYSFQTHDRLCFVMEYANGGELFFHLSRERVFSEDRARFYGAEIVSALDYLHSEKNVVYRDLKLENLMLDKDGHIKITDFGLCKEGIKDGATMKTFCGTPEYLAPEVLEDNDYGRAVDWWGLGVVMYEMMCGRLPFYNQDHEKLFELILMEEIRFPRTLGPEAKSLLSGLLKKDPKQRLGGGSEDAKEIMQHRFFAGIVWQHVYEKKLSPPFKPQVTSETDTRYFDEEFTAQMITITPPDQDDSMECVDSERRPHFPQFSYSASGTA

For the compound `CO[C@H]1CC[C@H](NC[C@@H](C(=O)N2CCN(c3ncnc4c3[C@H](C)C[C@H]4O)CC2)c2ccc(Cl)c(F)c2)CC1` [Example 1, (S)-2-(4-chloro-3-fluorophenyl)-1-(4-((5R,7R)-7-hydroxy-5-methyl-6,7-dihydro-5H-cyclopenta[d]pyrimidin-4-yl)piperazin-1-yl)-3-((1r,4S)-4-methoxycyclohexylamino)propan-1-one], the IC50 (usually the concentration at which inhibition is half-maximal) is less than 500 nM.
